Patent US20030185853A1, “Arteriosclerosis-preventing material, immune-activating material, vertebrate that has eaten such materials, and eggs thereof” (Nichimo Co., Ltd., priority 1999, published 2003)

Experiments:
[1] = tested on: Smooth muscle cells (SMC) derived from the aortic tunica media of stroke-prone spontaneously hypertensive rats (SHRSP); assay: Study 2 on arteriosclerosis capability: propagation of smooth muscle cells of the tunica media; type: cell-based; settings: 0.1 to 30 μmol/liter, five days; for smooth muscle cell propagating capability, number of cells (Determination A, FIG. 5): 10% FBS; for smooth muscle cell propagating capability, number of cells (Determination B, FIG. 6): with 20 ng/ml PDGF
Description: The object of the study is to investigate the effect of the above-described concentrated material of the present invention in terms of preventing propagation of smooth muscle cells of the tunica media of the blood vessels, which is one factor in arteriosclerosis.
1) Smooth muscle cells (SMC) derived from the aortic tunica media of stroke-prone spontaneously hypertensive rats (SHRSP) were prepared by the explant method, and five generations were cultivated.
2) After inoculating 10,000 well SMC in a 24-well plate, the cells were rinsed in the subconfluent state with DMEM medium containing 10% FBS at 37° C. and in the presence of 5% CO2. [The medium] was replaced with DMEM medium containing 0.4% albumin (phenol red-free) and cultivated for 48 hours.
3) Genistein (referred to hereafter as Gen), daidzein (referred to hereafter as Dai), glycitein (referred to hereafter as Gly), and the concentrated material of the present invention were each added to DMEM culture medium (phenol red-free) containing 10% FBS (charcoal-treated) to a concentration of 0.1 to 30 μmol/liter and cultivated for five days. Then, the number of cells was determined with a Coulter counter (referred to hereafter as Determination A).
4) The number of cells was determined by adding 20 ng/ml PDGF in accordance with the method 3) described above (referred to as Determination B).

chicks = assay: Study 1 on immune-activating capability: number of deaths during rearing of chicks; type: in vivo; settings: administered to comparison group after three weeks
Description: The object of the study is to investigate the immune-activating capability based on the number of deaths during rearing of chicks.
6,200 young chicks immediately after hatching were grouped into a comparison group and a study group each. The comparison group was provided conventional feed to which Bacillus subtilus (0.1 wt %) was added, and the study group was provided conventional feed to which the product (0.1 wt %) of propagation of lactic acid bacteria (Enterococcus faesium) as useful microorganisms in pulse crops of the present invention was added, and the number of deaths of chicks at one week, two weeks, three weeks, and four weeks of age was compared.

Compound | smooth muscle cell propagating capability, number of cells (Determination A, FIG. 5) [1] | smooth muscle cell propagating capability, number of cells (Determination B, FIG. 6) [1] | increase in deaths of chicks after antibiotic administration (chicks)
O=c1c(-c2ccc(O)cc2)coc2cc(O)ccc12 [Dai, daidzein] | cell-reducing effect | cell-reducing effect | 
O=c1c(-c2ccc(O)cc2)coc2cc(O)cc(O)c12 [Gen, Genistein] | cell-reducing effect | cell-reducing effect | 
CC1(C)S[C@@H]2[C@H](NC(=O)[C@H](N)c3ccccc3)C(=O)N2[C@H]1C(=O)O [ampicillin] |  |  | an increase in deaths could not be prevented
